Data: patent US8940896B2, “Tetra-cyclic carboline derivatives useful in the inhibition of angiogenesis” (PTC Therapeutics, Inc., priority 2004, dated 2015)

System: VEGF
Experiment: Hypoxia-inducible endogenous VEGF expression, VEGF ELISA assay
Format: cell-based
Conditions: HeLa cells, hypoxic conditions (1% O2, 5% CO2), VEGF in conditioned media
Protocol: The ability of the compounds of the invention to modulate hypoxia-inducible endogenous VEGF expression may be analyzed as follows. VEGF protein levels may be monitored by an ELISA assay (R&D Systems). Briefly, HeLa cells may be cultured for 24-48 hours under hypoxic conditions (1% O2, 5% CO2, balanced with nitrogen) in the presence or absence of a compound of the invention. The conditioned media may then be assayed by ELISA, and the concentration of VEGF calculated from the standard ELISA curve of each assay.
A dose-response analysis may be performed using the ELISA assay and conditions described above. The conditions for the dose-response ELISA are analogous to those described above. A series of, e.g., seven different concentrations may be analyzed. In parallel, a dose-response cytotoxicity assay may be performed using CellTiter Glo (Promega) under the same conditions as the ELISA to ensure that the inhibition of VEGF expression was not due to the cytotoxicity. Dose-response curves may be plotted using percentage inhibition versus concentration of the compound, and EC50 and CC50 values may be generated for each compound with the maximal inhibition set as 100% and the minimal inhibition as 0%.

COc1cccc(C2c3[nH]c4ccccc4c3CC3C(=O)N(C4CCCCC4)C(=S)N32)c1 (racemic) [Compound 2]
EC50 (Homo sapiens, HeLa): > 1000 nM

O=C1C2Cc3c([nH]c4ccccc34)C(C3CCCCC3)N2C(=S)N1C1CCCCC1 (centres unmarked) [Compound 1]
EC50: > 1000 nM

O=C1C2Cc3c([nH]c4ccccc34)C(c3ccc4c(c3)OCO4)N2C(=S)N1C1CCCCC1 (centres unmarked) [Compound 3]
EC50 (Homo sapiens, HeLa): > 1000 nM

O=C1C2Cc3c([nH]c4ccccc34)C(c3ccc(F)cc3)N2C(=S)N1C1CCCCC1 (centres unmarked) [Compound 4]
EC50 (Homo sapiens, HeLa): > 1000 nM

O=C1C2Cc3c([nH]c4ccccc34)C(C3CCCCC3)N2C(=S)N1C1CC1 (centres unmarked) [Compound 5]
EC50: > 1000 nM

COc1cccc(C2c3[nH]c4ccccc4c3CC3C(=O)N(C4CC4)C(=S)N32)c1 (centres unmarked) [Compound 6]
EC50 (Homo sapiens, HeLa): > 1000 nM

O=C1C2Cc3c([nH]c4ccc(Br)cc34)C(c3ccc4c(c3)OCO4)N2C(=S)N1C1CCCCC1 (centres unmarked) [Compound 9]
EC50: 8 to 40 nM

O=C1C2Cc3c([nH]c4ccc(Br)cc34)C(c3ccc(F)cc3)N2C(=S)N1C1CCCCC1 (centres unmarked) [Compound 10]
EC50 (Homo sapiens, HeLa): 8 to 40 nM

O=C1C2Cc3c([nH]c4ccccc34)C(C3CCCCC3)N2C(=S)N1C1CCCC1 (centres unmarked) [Compound 11]
EC50 (Homo sapiens, HeLa): 200 to 1000 nM

COc1cccc(C2c3[nH]c4ccccc4c3CC3C(=O)N(C4CCCC4)C(=S)N32)c1 (centres unmarked) [Compound 12]
EC50 (Homo sapiens, HeLa): > 1000 nM

COc1ccc(C2c3[nH]c4ccccc4c3CC3C(=O)N(C4CCCC4)C(=S)N32)cc1 (centres unmarked) [Compound 13]
EC50 (Homo sapiens, HeLa): 40 to 200 nM

O=C1C2Cc3c([nH]c4ccccc34)C(c3ccc4c(c3)OCO4)N2C(=S)N1C1CCCC1 (centres unmarked) [Compound 14]
EC50 (Homo sapiens, HeLa): 200 to 1000 nM

O=C1C2Cc3c([nH]c4ccc(Br)cc34)C(C3CCCCC3)N2C(=S)N1C1CC1 (centres unmarked) [Compound 15]
EC50 (Homo sapiens, HeLa): 200 to 1000 nM

COc1cccc(C2c3[nH]c4ccc(Br)cc4c3CC3C(=O)N(C4CC4)C(=S)N32)c1 (centres unmarked) [Compound 16]
EC50: < 8 nM

COc1ccc(C2c3[nH]c4ccc(Br)cc4c3CC3C(=O)N(C4CC4)C(=S)N32)cc1 (centres unmarked) [Compound 17]
EC50 (Homo sapiens, HeLa): < 8 nM

O=C1C2Cc3c([nH]c4ccc(Br)cc34)C(c3ccc4c(c3)OCO4)N2C(=S)N1C1CC1 (centres unmarked) [Compound 18]
EC50 (Homo sapiens, HeLa): < 8 nM

O=C1C2Cc3c([nH]c4ccc(Br)cc34)C(C3CCCCC3)N2C(=S)N1C1CCCC1 (centres unmarked) [Compound 19]
EC50 (Homo sapiens, HeLa): 8 to 40 nM

COc1cccc(C2c3[nH]c4ccc(Br)cc4c3CC3C(=O)N(C4CCCC4)C(=S)N32)c1 (centres unmarked) [Compound 20]
EC50 (Homo sapiens, HeLa): < 8 nM

COc1ccc(C2c3[nH]c4ccc(Br)cc4c3CC3C(=O)N(C4CCCC4)C(=S)N32)cc1 (centres unmarked) [Compound 21]
EC50 (Homo sapiens, HeLa): < 8 nM

O=C1C2Cc3c([nH]c4ccc(Br)cc34)C(c3ccc4c(c3)OCO4)N2C(=S)N1C1CCCC1 (centres unmarked) [Compound 22]
EC50 (Homo sapiens, HeLa): < 8 nM

COc1ccc(C2c3[nH]c4ccc(C)cc4c3CC3C(=O)N(C4CCCCC4)C(=S)N32)cc1 (centres unmarked) [Compound 23]
EC50 (Homo sapiens, HeLa): 8 to 40 nM

COc1ccc(C2c3[nH]c4ccc(OC)cc4c3CC3C(=O)N(C4CCCCC4)C(=O)N32)cc1 (centres unmarked) [Compound 24]
EC50 (Homo sapiens, HeLa): 40 to 200 nM

O=C1C2Cc3c([nH]c4ccc(Cl)cc34)C(c3ccc4c(c3)OCO4)N2C(=S)N1C1CCCCC1 (centres unmarked) [Compound 25]
EC50 (Homo sapiens, HeLa): < 8 nM

O=C1C2Cc3c([nH]c4ccc(Br)cc34)C(c3ccc(OCCN4CCCCC4)cc3)N2C(=S)N1C1CCCCC1 (centres unmarked) [Compound 26]
EC50 (Homo sapiens, HeLa): 40 to 200 nM

COc1ccc(C2c3[nH]c4ccc(Br)cc4c3CC3C(=O)N(C4CCCCC4)C(=S)N32)cc1 (centres unmarked) [Compound 27]
EC50: < 8 nM

COc1cccc(C2c3[nH]c4ccc(Br)cc4c3CC3C(=O)N(C4CCCCC4)C(=S)N32)c1 (centres unmarked) [Compound 28]
EC50 (Homo sapiens, HeLa): 8 to 40 nM

O=C1C2Cc3c([nH]c4ccc(Br)cc34)C(c3ccc4c(c3)OCO4)N2C(=O)N1C1CCCCC1 (centres unmarked) [Compound 29]
EC50 (Homo sapiens, HeLa): 8 to 40 nM

O=C1C2Cc3c([nH]c4ccc(Br)cc34)C(C3CCCCC3)N2C(=S)N1C1CCCCC1 (centres unmarked) [Compound 30]
EC50 (Homo sapiens, HeLa): 40 to 200 nM

O=C1C2Cc3c([nH]c4ccc(Cl)cc34)C(c3ccc4c(c3)OCO4)N2C(=O)N1C1CCCCC1 (centres unmarked) [Compound 31]
EC50 (Homo sapiens, HeLa): 40 to 200 nM

CCN1C(=O)C2Cc3c([nH]c4ccc(C)cc34)C(c3ccc(OC)cc3)N2C1=O (centres unmarked) [Compound 33]
EC50 (Homo sapiens, HeLa): 40 to 200 nM

Cc1ccc(N2C(=O)C3Cc4c([nH]c5ccccc45)C(c4cccc(Cl)c4)N3C2=S)cc1 (centres unmarked) [Compound 34]
EC50 (Homo sapiens, HeLa): 200 to 1000 nM

COc1ccc(C2c3[nH]c4ccccc4c3CC3C(=O)N(c4ccc(C(C)C)cc4)C(=O)N32)cc1 (centres unmarked) [Compound 35]
EC50 (Homo sapiens, HeLa): 200 to 1000 nM

O=C1C2Cc3c([nH]c4ccccc34)C(c3cccc(Cl)c3)N2C(=S)N1C1CCCCC1 (centres unmarked) [Compound 36]
EC50 (Homo sapiens, HeLa): > 1000 nM

Cc1ccccc1N1C(=O)C2Cc3c([nH]c4ccccc34)C(c3cccc(Cl)c3)N2C1=S (centres unmarked) [Compound 37]
EC50 (Homo sapiens, HeLa): > 1000 nM

O=C1C2Cc3c([nH]c4ccccc34)C(c3cccc(Cl)c3)N2C(=S)N1CCc1ccccc1 (centres unmarked) [Compound 38]
EC50 (Homo sapiens, HeLa): > 1000 nM

O=C1C2Cc3c([nH]c4ccccc34)C(c3cccc(Cl)c3)N2C(=S)N1c1cccc(F)c1 (centres unmarked) [Compound 39]
EC50 (Homo sapiens, HeLa): 200 to 1000 nM

COc1ccc(C2c3[nH]c4ccccc4c3CC3C(=O)N(C4CCCCC4)C(=S)N32)cc1 (centres unmarked) [Compound 40]
EC50 (Homo sapiens, HeLa): 200 to 1000 nM

COc1ccc(C2c3[nH]c4ccccc4c3CC3C(=O)N(C4CCCCC4)C(=S)N32)cc1 (centres unmarked) [Compound 41]
EC50: 200 to 1000 nM

COc1ccc(C2c3[nH]c4ccccc4c3CC3C(=O)N(C(C)C)C(=S)N32)cc1 (centres unmarked) [Compound 42]
EC50 (Homo sapiens, HeLa): 200 to 1000 nM

COc1ccc(C2c3[nH]c4ccccc4c3CC3C(=O)N(c4cccc(F)c4)C(=S)N32)cc1 (centres unmarked) [Compound 43]
EC50 (Homo sapiens, HeLa): 200 to 1000 nM

Cc1ccc2[nH]c3c(c2c1)CC1C(=O)N(C2CCCCC2)C(=O)N1C3c1ccc2c(c1)OCO2 (centres unmarked) [Compound 44]
EC50 (Homo sapiens, HeLa): 200 to 1000 nM

COc1ccc(C2c3[nH]c4ccc(C)cc4c3CC3C(=O)N(C4CCCCC4)C(=O)N32)cc1 (centres unmarked) [Compound 45]
EC50 (Homo sapiens, HeLa): 200 to 1000 nM

COc1ccc(C2c3[nH]c4ccccc4c3CC3C(=O)N(c4ccc(C)cc4)C(=S)N32)cc1 (centres unmarked) [Compound 46]
EC50 (Homo sapiens, HeLa): > 1000 nM

COc1ccc(C2c3[nH]c4ccccc4c3CC3C(=O)N(C4CCCCC4)C(=O)N32)cc1 (centres unmarked) [Compound 48]
EC50 (Homo sapiens, HeLa): > 1000 nM

COc1ccc(C2c3[nH]c4ccccc4c3CC3C(=O)N(c4ccccc4)C(=O)N32)cc1 (centres unmarked) [Compound 50]
EC50 (Homo sapiens, HeLa): > 1000 nM

COC(=O)c1cccc(N2C(=O)C3Cc4c([nH]c5ccccc45)C(c4ccc(OC)cc4)N3C2=S)c1 (centres unmarked) [Compound 51]
EC50 (Homo sapiens, HeLa): > 1000 nM

CN1C(=O)C2Cc3c([nH]c4ccccc34)C(c3ccc(Cl)c(Cl)c3)N2C1=S (centres unmarked) [Compound 53]
EC50 (Homo sapiens, HeLa): > 1000 nM

COc1ccc(C2c3[nH]c4ccccc4c3CC3C(=O)N(C4CCCCC4)C(=O)N32)cc1 (centres unmarked) [Compound 54]
EC50: > 1000 nM

CCN1C(=O)C2Cc3c([nH]c4ccc(Br)cc34)C(c3ccc(OC)cc3)N2C1=O (centres unmarked) [Compound 55]
EC50 (Homo sapiens, HeLa): > 1000 nM

O=C1C2Cc3c([nH]c4ccccc34)C(c3ccccc3)N2C(=S)N1C1CCCCC1 (centres unmarked) [Compound 56]
EC50 (Homo sapiens, HeLa): > 1000 nM

COc1cccc(C2c3[nH]c4ccccc4c3CC3C(=O)N(c4ccccc4)C(=S)N32)c1 (centres unmarked) [Compound 57]
EC50 (Homo sapiens, HeLa): > 1000 nM

CN1C(=O)C2Cc3c([nH]c4ccccc34)C(c3cccc(Cl)c3)N2C1=S (centres unmarked) [Compound 58]
EC50 (Homo sapiens, HeLa): > 1000 nM

COCCN1C(=O)C2Cc3c([nH]c4ccccc34)C(c3ccc(OC)cc3)N2C1=S (centres unmarked) [Compound 59]
EC50 (Homo sapiens, HeLa): > 1000 nM

COCCCN1C(=O)C2Cc3c([nH]c4ccccc34)C(c3ccc(OC)cc3)N2C1=S (centres unmarked) [Compound 62]
EC50 (Homo sapiens, HeLa): > 1000 nM

CN1C(=O)C2Cc3c([nH]c4ccccc34)C(c3ccc(F)cc3)N2C1=S (centres unmarked) [Compound 63]
EC50 (Homo sapiens, HeLa): > 1000 nM

CCN1C(=O)C2Cc3c([nH]c4ccccc34)C(c3cc(OC)c(OC)c(OC)c3)N2C1=S (centres unmarked) [Compound 64]
EC50 (Homo sapiens, HeLa): > 1000 nM

CN1C(=O)C2Cc3c([nH]c4ccccc34)C(c3cccc(F)c3)N2C1=S (centres unmarked) [Compound 65]
EC50 (Homo sapiens, HeLa): > 1000 nM

CCN1C(=O)C2Cc3c([nH]c4ccccc34)C(c3ccc(OC)cc3)N2C1=O (centres unmarked) [Compound 66]
EC50 (Homo sapiens, HeLa): > 1000 nM

C=CCN1C(=O)C2Cc3c([nH]c4ccccc34)C(c3cccc(Cl)c3)N2C1=S (centres unmarked) [Compound 67]
EC50 (Homo sapiens, HeLa): > 1000 nM

CC(C)N1C(=O)C2Cc3c([nH]c4ccccc34)C(c3cccc(Cl)c3)N2C1=S (centres unmarked) [Compound 68]
EC50 (Homo sapiens, HeLa): > 1000 nM

COc1ccc(C2c3[nH]c4ccccc4c3CC3C(=O)N(C(C)(C)C)C(=S)N32)cc1 (centres unmarked) [Compound 70]
EC50 (Homo sapiens, HeLa): > 1000 nM

COc1cc(C2c3[nH]c4ccccc4c3CC3C(=O)N(C)C(=S)N32)cc(OC)c1O (centres unmarked) [Compound 71]
EC50 (Homo sapiens, HeLa): > 1000 nM

O=C1C2Cc3c([nH]c4ccccc34)C(c3ccccc3)N2C(=O)N1C1CCCCC1 (centres unmarked) [Compound 72]
EC50 (Homo sapiens, HeLa): > 1000 nM

COc1ccc(C2c3[nH]c4ccccc4c3CC3C(=O)N(C)C(=S)N32)c(OC)c1OC (centres unmarked) [Compound 73]
EC50 (Homo sapiens, HeLa): > 1000 nM

COc1ccc(C2c3[nH]c4ccccc4c3CC3C(=O)N(c4ccccc4C(C)C)C(=S)N32)cc1 (centres unmarked) [Compound 74]
EC50 (Homo sapiens, HeLa): > 1000 nM

CN1C(=O)C2Cc3c([nH]c4ccccc34)C(c3cccc(Cl)c3Cl)N2C1=S (centres unmarked) [Compound 75]
EC50 (Homo sapiens, HeLa): > 1000 nM

COc1ccccc1C1c2[nH]c3ccccc3c2CC2C(=O)N(C)C(=S)N21 (centres unmarked) [Compound 76]
EC50 (Homo sapiens, HeLa): > 1000 nM

C=CCN1C(=O)C2Cc3c([nH]c4ccccc34)C(c3ccc(O)cc3)N2C1=S (centres unmarked) [Compound 77]
EC50 (Homo sapiens, HeLa): > 1000 nM

COc1ccc(C2c3[nH]c4ccccc4c3CC3C(=O)N(c4ccc(OC)cc4C)C(=S)N32)cc1 (centres unmarked) [Compound 78]
EC50 (Homo sapiens, HeLa): > 1000 nM

COc1ccc(C2c3[nH]c4ccccc4c3CC3C(=O)N(CCc4ccccc4)C(=S)N32)cc1 (centres unmarked) [Compound 79]
EC50 (Homo sapiens, HeLa): > 1000 nM

C=CCN1C(=O)C2Cc3c([nH]c4ccccc34)C(c3ccccc3OC)N2C1=S (centres unmarked) [Compound 85]
EC50: > 1000 nM
